Laboratory results taken from US7846946B2, “Heteroatom-linked substituted piperidines and derivatives thereof useful as histamine H3 antagonists” (Schering Plough Corporation, priority 2005, dated 2010).

Columns and labels:
[1] = molecular target: T1, H3 receptors (guinea pig brain) (Cavia porcellus, UniProt Q9JI35); assay: H3-receptor binding assay, guinea pig receptor; settings: radioligand [3H]R-α-methyl histamine or [3H]Nα-methyl histamine
T1 construct: The brain tissue was homogenized with a solution of 50 mM Tris, pH 7.5; from tissue; host or cells: guinea pig brain membranes
T1 sequence (Q9JI35 whole entry): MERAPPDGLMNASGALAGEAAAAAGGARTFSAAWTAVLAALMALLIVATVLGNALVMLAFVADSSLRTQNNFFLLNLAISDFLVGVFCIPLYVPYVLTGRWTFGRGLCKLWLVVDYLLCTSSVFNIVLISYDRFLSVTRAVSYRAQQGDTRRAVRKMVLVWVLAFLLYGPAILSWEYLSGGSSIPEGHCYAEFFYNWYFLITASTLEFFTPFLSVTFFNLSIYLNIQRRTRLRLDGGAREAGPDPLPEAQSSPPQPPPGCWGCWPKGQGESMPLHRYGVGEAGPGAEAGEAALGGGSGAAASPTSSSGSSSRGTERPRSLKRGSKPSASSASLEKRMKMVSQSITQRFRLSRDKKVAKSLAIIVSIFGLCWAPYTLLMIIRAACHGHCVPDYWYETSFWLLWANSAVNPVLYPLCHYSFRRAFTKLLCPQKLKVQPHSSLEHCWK
Procedure: (§1) General Procedure for H3-Receptor Binding Assay
(§2) The source of the H3 receptors in this experiment was guinea pig brain. Alternatively, the source of H3 receptors was recombinant human receptor, expressed in HEK-293 (human embryonic kidney) cells.
The animals weighed 400-600 g. The brain tissue was homogenized with a solution of 50 mM Tris, pH 7.5. The final concentration of tissue in the homogenization buffer was 10% w/v. The homogenates were centrifuged at 1,000×g for 10 min. in order to remove clumps of tissue and debris. The resulting supernatants were then centrifuged at 50,000×g for 20 min. in order to sediment the membranes, which were next washed three times in homogenization buffer (50,000×g for 20 min. each). The membranes were frozen and stored at −70° C. until needed.
All compounds to be tested were dissolved in DMSO and then diluted into the binding buffer (50 mM Tris, pH 7.5) such that the final concentration was 2 μg/ml with 0.1% DMSO. Membranes were then added (400 μg of protein, 5 μg in the case of recombinant human receptor) to the reaction tubes. […] Bound ligand was separated from unbound ligand by filtration, and the amount of radioactive ligand bound to the membranes was quantitated by liquid scintillation spectrometry. […]

[2] = molecular target: T2, recombinant human H3 receptor, expressed in HEK-293 cells (Homo sapiens, UniProt Q9Y5N1); assay: H3-receptor binding assay, recombinant human receptor; settings: recombinant human receptor assay (HEK-293)
T2 construct: expressed in transfected cells; host or cells: HEK-293 (human embryonic kidney) cells
T2 sequence (Q9Y5N1 whole entry): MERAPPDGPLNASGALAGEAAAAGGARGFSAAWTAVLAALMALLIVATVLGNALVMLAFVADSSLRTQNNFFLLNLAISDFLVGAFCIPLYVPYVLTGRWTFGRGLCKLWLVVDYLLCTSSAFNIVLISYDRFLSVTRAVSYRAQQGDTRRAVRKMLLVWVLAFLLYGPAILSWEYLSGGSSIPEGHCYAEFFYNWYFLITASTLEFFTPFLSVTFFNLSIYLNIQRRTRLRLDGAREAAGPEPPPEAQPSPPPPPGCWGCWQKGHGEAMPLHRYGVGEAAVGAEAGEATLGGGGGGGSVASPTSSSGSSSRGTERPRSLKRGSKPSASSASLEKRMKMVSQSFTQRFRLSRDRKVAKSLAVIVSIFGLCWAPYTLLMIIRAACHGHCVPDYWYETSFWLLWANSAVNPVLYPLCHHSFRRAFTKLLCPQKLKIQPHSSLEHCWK
Procedure: as §1, §2
All compounds to be tested were dissolved in DMSO and then diluted into the binding buffer (50 mM Tris, pH 7.5) such that the final concentration was 2 μg/ml with 0.1% DMSO. Membranes were then added (400 μg of protein, 5 μg in the case of recombinant human receptor) to the reaction tubes. The reaction was started by the addition of 3 nM [^3H]R-α-methyl histamine (8.8 Ci/mmol) or 3 nM [^3H]Na^α-methyl histamine (80 Ci/mmol) and continued under incubation at 30° C. for 30 min. Bound ligand was separated from unbound ligand by filtration, and the amount of radioactive ligand bound to the membranes was quantitated by liquid scintillation spectrometry. All incubations were performed in duplicate and the standard error was always less than 10%. Compounds that inhibited more than 70% of the specific binding of radioactive ligand to the receptor were serially diluted to determine a Ki (nM).

Row | Ki [1] | Ki [2] | Compound
1 | 0.2 nM |  | Cc1cc(C(=O)NCc2cccnc2NC2CCN(C(=O)C3CCN(Cc4ccnc(N)c4)CC3)CC2)no1 [Example 11]
2 |  | 0.7 nM | Nc1cc(CN2CCC(C(=O)N3CCC(NCc4ccc(F)cc4F)CC3)CC2)ccn1 [Example 256]
